Measurements from US10688099B2, “Methods for modulating the amount of RNA transcripts” (PTC Therapeutics, Inc., priority 2013, dated 2020).

Test system: RNA isoforms in PNN 1-46 SMA type I patient-derived fibroblasts
Assay: RNA Abundance Modulation (RNA isoform abundance, iFPM, HiSeq RNA sequencing)
Type: cell-based, human
Conditions: 3 μM
Procedure: Cells from a cell line of interest are cultured in conditions sufficient to yield the number of cells capable of generating enough RNA for subsequent sequencing steps. Cells from the tested cell line are contacted with a compound described herein.
To culture said cells, they are seeded, at appropriate concentrations in a volume of media in a cell culture container and incubated for 4, 5, 6, 7, 8, 9, 10, or more hours. A concentrated solution of compound in a vehicle (e.g., DMSO) is then added in sufficient volume to result in the intended final concentration of the compound, for example 100 nM, 500 nM, 1 μM, 5 μM, 10 μM, 15 μM, 20 μM, or more. The cells may also be treated with vehicle alone, as a control. A number of replicates of each concentration or control may be made (e.g., 2 replicates). The cells are then incubated at a constant temperature appropriate for cell culture of the particular cell line (e.g., 37° C.) for 6, 12, 18, 24, 48, or more hours. After incubation, the growth medium is removed and the cells are washed with the appropriate buffer (e.g., PBS). Cells are then removed from adherence to the cell culture container by treatment with a solution containing trypsin, and the trypsin subsequently quenched with the appropriate volume of buffer (e.g., DMEM-FBS). The cells are then pelleted with gentle centrifugation (e.g., ≤90×g centrifugal force) and resuspended in a buffer to lyse the cells for extraction of RNA. The cell lysates may then be frozen (e.g., at −80° C.) or, alternately, may immediately be used in a procedure to purify the RNA (e.g. by use of the RNEASY PLUS® minikit). The RNA from cell lysates is eluted in the appropriate volume of buffer (e.g., RNEASE-FREE H2O®). The resulting purified RNA may then be sequenced (e.g., using RNASeq) or analyzed using a human exon array (e.g., by GENECHIP® human exon array) to determine changes in the RNA levels in those cells treated with compound compared to those cells treated only with DMSO. The purified RNA may also be quantified by other methods known in the art.
Using the RNA data obtained from sequencing, exon array, or other methods, a statistical analysis can reveal changes in the RNA levels of compound-treated compared with control. For example, t-test p-values may be calculated for the data obtained through sequencing and exon array methods in order to compare compound-treated cells to those treated with the DMSO control. […] Analysis of the sequencing and exon array data may then also yield predictions about the cause of the aberrant amount of an RNA transcript in the cells (e.g., perturbation of RNA splicing, RNA transcription, or RNA stability). These predictions may be further confirmed by methods known in the art. For example, RT-PCR and RT-qPCR may be used to confirm the change in amount of RNA transcripts for one or more particular transcripts of interest.
Following the methods described above in Example 1, PNN 1-46 SMA type I patient-derived fibroblasts were treated with 300 nM or 3 μM Compounds 774 and 808 in 0.5% DMSO.
700,000 cells were seeded in 10 mL of medium (DMEM plus 10% FBS) in a T-75 flask. Cells were allowed to attach for at least 4 hrs, after which 50 μL of a 200× compound solution (100% DMSO) was added to each well, and the plate was incubated at 37° C. for 24 hrs.
At the end of the incubation period, the supernatant was removed and the cells where washed with PBS. TrypLE (Invitrogen) express solution was added (e.g. 1.5 mL per one T75 flask). The flasks were incubated for 3 to 5 min at 37° C. The trypsin was then quenched, e.g., by adding 10 mL DMEM-FBS.
Next, the cells were pelleted using gentle centrifugation without exceeding 90×g centrifugal force. The supernatant was removed and the cell pellet was re-suspended in 600 μL RLT buffer (the RLT buffer was supplemented with beta-mercaptoethanol according to the RNeasy protocol manual) by pipetting up and down until the pellet was completely dissolved […]

Structure (SMILES): CCc1nc(C)cn2nc(-c3cc(=O)n4cc(C5CCN(C)CC5)cc(C)c4n3)cc12 [Compound 774]
- amp FC (x + 1) (U2SURP BC006474): 1.09
- ave Cpd (U2SURP BC006474): 1249 iFPM
- FC (x + 1) (U2SURP BC111692): 1.9191
- L2FC (x + 1) (U2SURP BC111692): 0.940
- L2abs (Cpd-DMSO) (U2SURP BC111692): 3.18
- abs (Cpd-DMSO) (U2SURP BC111692): 9 iFPM
- amp FC (x + 1) (U2SURP BC111692): 1.92
- ave Cpd (U2SURP BC111692): 18 iFPM
- FC (x + 1) (U2SURP NM_001080415): 2.2780
- L2FC (x + 1) (U2SURP NM_001080415): 1.188
- L2abs (Cpd-DMSO) (U2SURP NM_001080415): 7.79
- abs (Cpd-DMSO) (U2SURP NM_001080415): 222 iFPM
- amp FC (x + 1) (U2SURP NM_001080415): 2.28
- ave Cpd (U2SURP NM_001080415): 395 iFPM
- FC (x + 1) (UBAP2L AJ243668): 0.4506
- L2FC (x + 1) (UBAP2L AJ243668): −1.150
- L2abs (Cpd-DMSO) (UBAP2L AJ243668): 6.40
- abs (Cpd-DMSO) (UBAP2L AJ243668): 84 iFPM
- amp FC (x + 1) (UBAP2L AJ243668): 2.22
- ave Cpd (UBAP2L AJ243668): 68 iFPM
- FC (x + 1) (UBAP2L AJ243669): 0.2687
- L2FC (x + 1) (UBAP2L AJ243669): −1.896
- L2abs (Cpd-DMSO) (UBAP2L AJ243669): 6.45
- abs (Cpd-DMSO) (UBAP2L AJ243669): 88 iFPM
- amp FC (x + 1) (UBAP2L AJ243669): 3.72
- ave Cpd (UBAP2L AJ243669): 31 iFPM
- FC (x + 1) (UBAP2L AJ243670): 3.1873
- L2FC (x + 1) (UBAP2L AJ243670): 1.672
- L2abs (Cpd-DMSO) (UBAP2L AJ243670): 1.13
- abs (Cpd-DMSO) (UBAP2L AJ243670): 2 iFPM
- amp FC (x + 1) (UBAP2L AJ243670): 3.19
- ave Cpd (UBAP2L AJ243670): 2 iFPM
- FC (x + 1) (UBAP2L AK124294): 0.4670
- L2FC (x + 1) (UBAP2L AK124294): −1.099
- L2abs (Cpd-DMSO) (UBAP2L AK124294): 5.20
- abs (Cpd-DMSO) (UBAP2L AK124294): 37 iFPM
- amp FC (x + 1) (UBAP2L AK124294): 2.14
- ave Cpd (UBAP2L AK124294): 31 iFPM
- FC (x + 1) (UBAP2L AK302662): 0.2827
- L2FC (x + 1) (UBAP2L AK302662): −1.822
- L2abs (Cpd-DMSO) (UBAP2L AK302662): 8.14
- abs (Cpd-DMSO) (UBAP2L AK302662): 283 iFPM
- amp FC (x + 1) (UBAP2L AK302662): 3.54
- ave Cpd (UBAP2L AK302662): 110 iFPM
- FC (x + 1) (UBAP2L AK302953): 0.5118
- L2FC (x + 1) (UBAP2L AK302953): −0.966
- L2abs (Cpd-DMSO) (UBAP2L AK302953): 8.57
- abs (Cpd-DMSO) (UBAP2L AK302953): 381 iFPM
- amp FC (x + 1) (UBAP2L AK302953): 1.95
- ave Cpd (UBAP2L AK302953): 399 iFPM
- FC (x + 1) (UBAP2L AK303533): 0.0476
- L2FC (x + 1) (UBAP2L AK303533): −4.392
- L2abs (Cpd-DMSO) (UBAP2L AK303533): 4.32
- abs (Cpd-DMSO) (UBAP2L AK303533): 20 iFPM
- amp FC (x + 1) (UBAP2L AK303533): 20.99
- ave Cpd (UBAP2L AK303533): 0 iFPM
- FC (x + 1) (UBAP2L NM_014847): 0.3090
- L2FC (x + 1) (UBAP2L NM_014847): −1.695
- L2abs (Cpd-DMSO) (UBAP2L NM_014847): 10.25
- abs (Cpd-DMSO) (UBAP2L NM_014847): 1219 iFPM
- amp FC (x + 1) (UBAP2L NM_014847): 3.24
- ave Cpd (UBAP2L NM_014847): 544 iFPM
- FC (x + 1) (UBAP2L NM_001127320): 0.4857
- L2FC (x + 1) (UBAP2L NM_001127320): −1.042
- L2abs (Cpd-DMSO) (UBAP2L NM_001127320): 10.01
- abs (Cpd-DMSO) (UBAP2L NM_001127320): 1030 iFPM
- amp FC (x + 1) (UBAP2L NM_001127320): 2.06
- ave Cpd (UBAP2L NM_001127320): 972 iFPM
- FC (x + 1) (UBE2V1 NM_021988): 0.9186
- L2FC (x + 1) (UBE2V1 NM_021988): −0.122
- L2abs (Cpd-DMSO) (UBE2V1 NM_021988): 2.64
- abs (Cpd-DMSO) (UBE2V1 NM_021988): 6 iFPM
- amp FC (x + 1) (UBE2V1 NM_021988): 1.09
- ave Cpd (UBE2V1 NM_021988): 69 iFPM
- FC (x + 1) (UBE2V1 NM_022442): 0.2858
